Reference: US20240368177A1, “5-AMINO-6,8-DIHYDRO-1H-FURO[3,4-d]PYRROLO[3,2-b]PYRIDINE-2-CARBOXAMIDE DERIVATIVES AS MTA-COOPERATIVE INHIBITORS OF PRMT5” (BeiGene Switzerland GmbH, priority 2023, published 2024)

Key:
HCT116-MTAP-KO = assay: Cell killing in HCT116 isogenic pair (Cell Titer-Glo viability), MTAP knock-out cells; type: cell-based, human; conditions: 6 days incubation, 0-10 μM, * = more than 50% viability inhibition at tested concentration without a full curve
Summary of the method: (§1)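 HCT116 MTAP-knockout or mock-knockout (MTAP wildtype) cells in RPMI 1640 with 10% FBS were seeded overnight, then exposed to test compound at 0–10 μM final for 6 days at 37° C. Viability was measured by CellTiter-Glo luminescence and IC50 was fitted.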

HCT116-mock-RNA-KO = assay: Cell killing in HCT116 isogenic pair (Cell Titer-Glo viability), mock knock-out cells with MTAP wildtype genotype; type: cell-based, human; conditions: 6 days incubation, 0-10 μM
Summary of the method: as §1

Row | Compound | IC50 (HCT116-MTAP-KO; Homo sapiens, HCT-116, 144 h) [nM] | IC50 (HCT116-mock-RNA-KO; Homo sapiens, HCT-116, 144 h) [nM] | IC50 (HCT116-MTAP-KO) [nM] | IC50 (HCT116-mock-RNA-KO) [nM]
1 | CCN(C(=O)c1cc2nc(N)c3c(c2[nH]1)COC3)[C@H](C)c1ccc(C(F)(F)F)cn1 [Example 115, (R)-5-amino-N-ethyl-N-(1-(5-(trifluoromethyl)pyridin-2-yl)ethyl)-6,8-dihydro-1H-furo[3,4-d]pyrrolo[3,2-b]pyridine-2-carboxamide] | 43 | 6820 |  | 
2 | CCC(CC)N(Cc1c(F)cc(C(F)(F)F)cc1F)C(=O)c1cc2nc(N)c3c(c2[nH]1)CO[C@@H]3C [Example 116, (R)-5-amino-N-(2,6-difluoro-4-(trifluoromethyl)benzyl)-6-methyl-N-(pentan-3-yl)-6,8-dihydro-1H-furo[3,4-d]pyrrolo[3,2-b]pyridine-2-carboxamide] | 6.9 | 269 |  | 
3 | CCC(CC)N(Cc1ncc(N2CCOCC2)cc1F)C(=O)c1cc2nc(N)c3c(c2[nH]1)COC3 [Example 117, 5-amino-N-((3-fluoro-5-morpholinopyridin-2-yl)methyl)-N-(pentan-3-yl)-6,8-dihydro-1H-furo[3,4-d]pyrrolo[3,2-b]pyridine-2-carboxamide] | 6.5 | 609 |  | 
4 | C[C@@H](c1ncc(C2CC2)cc1F)N(C)C(=O)c1cc2nc(N)c3c(c2[nH]1)COC3 [Example 118, (S)-5-amino-N-(1-(5-cyclopropyl-3-fluoropyridin-2-yl)ethyl)-N-methyl-6,8-dihydro-1H-furo[3,4-d]pyrrolo[3,2-b]pyridine-2-carboxamide] | 2250 | > 10000 |  | 
5 | C[C@H](c1ncc(C2CC2)cc1F)N(C)C(=O)c1cc2nc(N)c3c(c2[nH]1)COC3 [Example 119, (R)-5-amino-N-(1-(5-cyclopropyl-3-fluoropyridin-2-yl)ethyl)-N-methyl-6,8-dihydro-1H-furo[3,4-d]pyrrolo[3,2-b]pyridine-2-carboxamide] | 9.8 | 1590 |  | 
6 | CCN(C(=O)c1cc2nc(N)c3c(c2[nH]1)COC3)[C@H](C)c1ncc(C2CC2)cc1F [Example 120, (R)-5-amino-N-(1-(5-cyclopropyl-3-fluoropyridin-2-yl)ethyl)-N-ethyl-6,8-dihydro-1H-furo[3,4-d]pyrrolo[3,2-b]pyridine-2-carboxamide] | 5.6 | 992 |  | 
7 | CCN(C(=O)c1cc2nc(N)c3c(c2[nH]1)COC3)[C@@H](C)c1ncc(C2CC2)cc1F [Example 121, (S)-5-amino-N-(1-(5-cyclopropyl-3-fluoropyridin-2-yl)ethyl)-N-ethyl-6,8-dihydro-1H-furo[3,4-d]pyrrolo[3,2-b]pyridine-2-carboxamide] | 586 | > 10000 |  | 
8 | C[C@@H](c1c(F)cc(Br)cc1F)N(C)C(=O)c1cc2nc(N)c3c(c2[nH]1)COC3 [Example 122, (S)-5-amino-N-(1-(4-bromo-2,6-difluorophenyl)ethyl)-N-methyl-6,8-dihydro-1H-furo[3,4-d]pyrrolo[3,2-b]pyridine-2-carboxamide] | 2220 | 5780 |  | 
9 | C[C@H](c1c(F)cc(Br)cc1F)N(C)C(=O)c1cc2nc(N)c3c(c2[nH]1)COC3 [Example 123, (R)-5-amino-N-(1-(4-bromo-2,6-difluorophenyl)ethyl)-N-methyl-6,8-dihydro-1H-furo[3,4-d]pyrrolo[3,2-b]pyridine-2-carboxamide] | 46 | 4910 |  | 
10 | CCN(C(=O)c1cc2nc(N)c3c(c2[nH]1)CO[C@@H]3C)[C@H](C)c1ccc(Br)cc1F [Example 124, (R)-5-amino-N—((R)-1-(4-bromo-2-fluorophenyl)ethyl)-N-ethyl-6-methyl-6,8-dihydro-1H-furo[3,4-d]pyrrolo[3,2-b]pyridine-2-carboxamide] | 22 | 2470 |  | 
11 | CCN(C(=O)c1cc2nc(N)c3c(c2[nH]1)CO[C@@H]3C)[C@@H](C)c1ccc(Br)cc1F [Example 125] |  |  | 365 | 7460
12 | CCN(C(=O)c1cc2nc(N)c3c(c2[nH]1)CO[C@@H]3C)[C@H](C)c1ccc(C(F)(F)F)cc1F [Example 126, (R)-5-amino-N-ethyl-N—((R)-1-(2-fluoro-4-(trifluoromethyl)phenyl)ethyl)-6-methyl-6,8-dihydro-1H-furo[3,4-d]pyrrolo[3,2-b]pyridine-2-carboxamide] | 11 | 1720 |  | 
13 | CCN(C(=O)c1cc2nc(N)c3c(c2[nH]1)CO[C@@H]3C)[C@@H](C)c1ccc(C(F)(F)F)cc1F [Example 127, (R)-5-amino-N-ethyl-N—((S)-1-(2-fluoro-4-(trifluoromethyl)phenyl)ethyl)-6-methyl-6,8-dihydro-1H-furo[3,4-d]pyrrolo[3,2-b]pyridine-2-carboxamide] | 236 | 5900 |  | 
14 | CCN(C(=O)c1cc2nc(N)c3c(c2[nH]1)CO[C@@H]3C)[C@H](C)c1ncc(Br)cc1F [Example 128, (R)-5-amino-N—((R)-1-(5-bromo-3-fluoropyridin-2-yl)ethyl)-N-ethyl-6-methyl-6,8-dihydro-1H-furo[3,4-d]pyrrolo[3,2-b]pyridine-2-carboxamide] | 6 | 1050 |  | 
15 | CCN(C(=O)c1cc2nc(N)c3c(c2[nH]1)CO[C@@H]3C)[C@@H](C)c1ncc(Br)cc1F [Example 129, (R)-5-amino-N—((S)-1-(5-bromo-3-fluoropyridin-2-yl)ethyl)-N-ethyl-6-methyl-6,8-dihydro-1H-furo[3,4-d]pyrrolo[3,2-b]pyridine-2-carboxamide] | 1180 | > 10000 |  | 
16 | CCN(C(=O)c1cc2nc(N)c3c(c2[nH]1)CO[C@@H]3C)[C@H](C)c1ncc(C(F)(F)F)cc1F [Example 130, (R)-5-amino-N-ethyl-N—((R)-1-(3-fluoro-5-(trifluoromethyl)pyridin-2-yl)ethyl)-6-methyl-6,8-dihydro-1H-furo[3,4-d]pyrrolo[3,2-b]pyridine-2-carboxamide] | 8.5 | 1090 |  | 
17 | CCN(C(=O)c1cc2nc(N)c3c(c2[nH]1)CO[C@@H]3C)[C@@H](C)c1ncc(C(F)(F)F)cc1F [Example 131, (R)-5-amino-N-ethyl-N—((S)-1-(3-fluoro-5-(trifluoromethyl)pyridin-2-yl)ethyl)-6-methyl-6,8-dihydro-1H-furo[3,4-d]pyrrolo[3,2-b]pyridine-2-carboxamide] | 1830 | > 10000 |  | 
18 | CCN(C(=O)c1cc2nc(N)c3c(c2[nH]1)COC3)[C@H](C)c1ncc(N2CCOCC2)cc1F [Example 132, 5-amino-N-ethyl-N-(1-(3-fluoro-5-morpholinopyridin-2-yl)ethyl)-6,8-dihydro-1H-furo[3,4-d]pyrrolo[3,2-b]pyridine-2-carboxamide] | 45 | > 10000 |  | 
19 | CCN(C(=O)c1cc2nc(N)c3c(c2[nH]1)COC3)[C@H](C)c1ccc(Br)cc1F [Example 133, (R)-5-amino-N-(1-(4-bromo-2-fluorophenyl)ethyl)-N-ethyl-6,8-dihydro-1H-furo[3,4-d]pyrrolo[3,2-b]pyridine-2-carboxamide] | 13 | 1340 |  | 
20 | CCN(C(=O)c1cc2nc(N)c3c(c2[nH]1)COC3)[C@@H](C)c1ccc(Br)cc1F [Example 134, (S)-5-amino-N-(1-(4-bromo-2-fluorophenyl)ethyl)-N-ethyl-6,8-dihydro-1H-furo[3,4-d]pyrrolo[3,2-b]pyridine-2-carboxamide] | 336 | 2880 |  | 
21 | CCN(C(=O)c1cc2nc(N)c3c(c2[nH]1)COC3)[C@H](C)c1ccc(C(F)(F)F)cc1F [Example 135, (R)-5-amino-N-ethyl-N-(1-(2-fluoro-4-(trifluoromethyl)phenyl)ethyl)-6,8-dihydro-1H-furo[3,4-d]pyrrolo[3,2-b]pyridine-2-carboxamide] | 26 | 2130 |  | 
22 | CCN(C(=O)c1cc2nc(N)c3c(c2[nH]1)COC3)[C@@H](C)c1ccc(C(F)(F)F)cc1F [Example 136, (S)-5-amino-N-ethyl-N-(1-(2-fluoro-4-(trifluoromethyl)phenyl)ethyl)-6,8-dihydro-1H-furo[3,4-d]pyrrolo[3,2-b]pyridine-2-carboxamide] | 245 | 3520 |  | 
23 | C[C@H](c1ccc(Br)cc1F)N(C)C(=O)c1cc2nc(N)c3c(c2[nH]1)COC3 [Example 137, (R)-5-amino-N-(1-(4-bromo-2-fluorophenyl)ethyl)-N-methyl-6,8-dihydro-1H-furo[3,4-d]pyrrolo[3,2-b]pyridine-2-carboxamide] | 44 | 3020 |  | 
24 | C[C@@H](c1ccc(Br)cc1F)N(C)C(=O)c1cc2nc(N)c3c(c2[nH]1)COC3 [Example 138, (S)-5-amino-N-(1-(4-bromo-2-fluorophenyl)ethyl)-N-methyl-6,8-dihydro-1H-furo[3,4-d]pyrrolo[3,2-b]pyridine-2-carboxamide] | 913 | 3240 |  | 
25 | C[C@H](c1ccc(Br)cc1F)N(C)C(=O)c1cc2nc(N)c3c(c2[nH]1)CO[C@@H]3C [Example 139, (R)-5-amino-N—((R)-1-(4-bromo-2-fluorophenyl)ethyl)-N,6-dimethyl-6,8-dihydro-1H-furo[3,4-d]pyrrolo[3,2-b]pyridine-2-carboxamide] | 12 | 2400 |  | 
26 | C[C@H]1OCc2c1c(N)nc1cc(C(=O)N(C)[C@@H](C)c3ccc(Br)cc3F)[nH]c21 [Example 140, (R)-5-amino-N—((S)-1-(4-bromo-2-fluorophenyl)ethyl)-N,6-dimethyl-6,8-dihydro-1H-furo[3,4-d]pyrrolo[3,2-b]pyridine-2-carboxamide] | 270 | 3030 |  | 
27 | Nc1nc2cc(C(=O)N3CCOC[C@@H]3c3ccc(C(F)(F)F)cc3)[nH]c2c2c1COC2 [Example 141, (S)-(5-amino-6,8-dihydro-1H-furo[3,4-d]pyrrolo[3,2-b]pyridin-2-yl)(3-(4-(trifluoromethyl)phenyl)morpholino)methanone] | 149 | > 10000 |  | 
